The record followed here is patent US9790202B2, “Anthranilamide derivatives as pesticides” (priority 2010, dated 2017).

In data set [1] the test system is larvae of the mustard beetle (Phaedon cochleariae). The data set can be described thus: Phaedon test (PHAECO spray treatment), Use Example 2. It counts as in vivo. Conditions: in Brassica rapa, foliar, 168 h, read-out: efficacy in % (beetle larvae killed). The protocol: (§1) Phaedon Test (PHAECO Spray Treatment)
(§2) Solvent: 78.0 parts by weight of acetone 1.5 parts by weight of dimethylformamide
(§3) Emulsifier: 0.5 part by weight of alkylaryl polyglycol ether
(§4) To produce an appropriate active ingredient formulation, 1 part by weight of active ingredient is mixed with the stated amounts of solvent and emulsifier, and the concentrate is diluted with emulsifier-containing water to the desired concentration.
Leaf discs of Chinese cabbage (Brassica pekinensis) are sprayed with an active ingredient formulation of the desired concentration and, after drying, populated with larvae of the mustard beetle (Phaedon cochleariae).
After 7 days, the efficacy in % is determined 100% means that all beetle larvae have been killed; 0% means that no beetle larvae have been killed.

Data set [2] relates to Lucilia cuprina 1st instar larvae. The data set can be described thus: Lucilia cuprina test (LUCICU). It counts as in vivo. The conditions noted are these: 100 ppm, treated horsemeat, after 48 h. The protocol:
Lucilia cuprina Test (LUCICU)
Species: Lucilia cuprina 1st larval stage (age: 24 hours)
(§5) Solvent: dimethyl sulphoxide
(§6) To prepare an appropriate active ingredient formulation, 10 mg of active ingredient are mixed with 0.5 ml of dimethyl sulphoxide and the concentrate is diluted with water to the desired concentration.
Vessels containing 1 cm^3 of horsemeat which had been treated with the active ingredient formulation are populated with about 20 Lucilia cuprina 1st instar larvae.
After 48 h, the kill in % is determined 100% means that all larvae have been killed; 0% means that no larvae have been killed.

The subject of data set [3] is adult Musca domestica. In words: Musca domestica test (MUSCDO). The format is in vivo. Conditions: 100 ppm, treated sponge, after 2 days. The protocol:
Musca domestica Test (MUSCDO)
as §5, §6
Vessels containing a sponge treated with the active ingredient preparation of the desired concentration are populated with 10 adult Musca domestica.
After 2 days, the kill in % is determined 100% means that all flies have been killed; 0% means that no flies have been killed.

Data set [4] is described as follows: log P determination by HPLC on reversed-phase columns (C 18), acidic range. It counts as physicochemical. The conditions noted are these: for chromatographic logP: pH 2.7, LOGP (HCOOH). The protocol: The log P values reported in the table above and in the Preparation Examples were determined in accordance with EEC Directive 79/831 Annex V.A8 by HPLC (High Performance Liquid Chromatography) on reversed-phase columns (C 18), with the following methods:
The LC-MS determination in the acidic range is effected at pH 2.7 using 0.1% aqueous formic acid and acetonitrile (contains 0.1% formic acid) as eluents, linear gradient from 10% acetonitrile to 95% acetonitrile
The calibration was effected with unbranched alkan-2-ones (having 3 to 16 carbon atoms) with known log P values (log P values determined on the basis of the retention times by linear interpolation between two successive alkanones).

Data set [5] deals with green peach aphid (Myzus persicae). In words: Myzus test (MYZUPE spray treatment). The format is in vivo. The conditions noted are these: in Brassica rapa, foliar, 144 h, read-out: efficacy in % (aphids killed). The protocol: Myzus Test (MYZUPE Spray Treatment)
Solvent: 78 parts by weight of acetone 1.5 parts by weight of dimethylformamide
as §3, §4
Leaf discs of Chinese cabbage (Brassica pekinensis) infested by all stages of the green peach aphid (Myzus persicae) are sprayed with an active ingredient formulation of the desired concentration.
After 6 days, the efficacy in % is determined 100% means that all aphids have been killed; 0% means that no aphids have been killed.

The subject of data set [6] is caterpillars of the armyworm (Spodoptera frugiperda). In words: Spodoptera frugiperda test (SPODFR spray treatment). The format is in vivo. The conditions noted are these: for pest or weed control at 100 g/ha: Spodoptera frugiperda, in Zea mays, foliar, 168 h, read-out: efficacy in % (caterpillars killed). The protocol: Spodoptera frugiperda Test (SPODFR Spray Treatment)
as §2, §3, §4
Leaf discs of maize (Zea mays) are sprayed with an active ingredient formulation of the desired concentration and, after drying, populated with caterpillars of the armyworm (Spodoptera frugiperda).
After 7 days, the efficacy in % is determined 100% means that all caterpillars have been killed; 0% means that no caterpillars have been killed.

The test system of data set [7] is larvae of the mustard beetle (Phaedon cochleariae). The data set can be described thus: Phaedon test (PHAECO spray treatment), Use Example 6, comparison with prior art. It counts as in vivo. The conditions noted are these: 168 h, 7 d. As to the method:
as §1
Solvent: 78.0 parts by weight of acetone
1.5 parts by weight of dimethylformamide
as §3
To produce an appropriate active ingredient formulation, 1 part by weight of active ingredient is mixed with the stated amounts of solvent and emulsifier, and the concentrate is diluted with emulsifier-containing water to the desired concentration. Leaf discs of Chinese cabbage (Brassica pekinensis) are sprayed with an active ingredient formulation of the desired concentration and, after drying, populated with larvae of the mustard beetle (Phaedon cochleariae).
After the desired period of time, the effect in % is determined. 100% means that all beetle larvae have been killed; 0% means that no beetle larvae have been killed.

A word on the chromatographic logP: it is a lipophilicity value derived from retention on a column. In the case of `CNC(=O)c1cc(C(=O)OC)cc(C)c1NC(=O)c1cc(Cn2nnc(C(F)(F)F)n2)nn1-c1ncccc1Cl` [Compound 2], the values for the pest or weed control at 100 g/ha in data set [1], in data set [5] and in data set [6] were 100%, 90% and 100%, respectively. For the same compound, the “kill in % (larvae killed)” value in data set [2] stood at 100%. In addition, in data set [3], the “kill in % (flies killed)” value worked out at 90%. Besides, the chromatographic logP in data set [4] turned out to be 2.77.

As for `CC(=O)c1cc(C)c(NC(=O)c2cc(Cn3nnc(C(F)(F)F)n3)nn2-c2ncccc2Cl)c(C(=O)NC(C)(C)C)c1` [Compound 1], in data set [2], the “kill in % (larvae killed)” value was found to be 100%. Moreover, the “kill in % (flies killed)” value in data set [3] worked out at 100%. Moreover, in data set [4] (pH 2.7), the “LOGP (HCOOH)” value came out at 3.26. For the same compound, the pest or weed control at 100 g/ha in data set [5] and in data set [6] was 100% throughout.

With `CC(=O)c1cc(C)c(NC(=O)c2cc(Cn3nnc(C(F)(F)F)n3)nn2-c2ncccc2Cl)c(C(=O)NC(C)(C)C)c1` [Compound 6], the “kill in % (larvae killed)” value in data set [2] is on record as 100%. The “kill in % (flies killed)” value in data set [3] is 90%. The chromatographic logP in data set [4] was found to be 2.87. For the same compound, the “efficacy in % (caterpillars killed)” value in data set [6] (100 g/ha, spray on maize leaf discs, after 7 days) is 100%.

Regarding `C/C(=N\O)c1cc(C)c(NC(=O)c2cc(Cn3nnc(C(F)(F)F)n3)nn2-c2ncccc2Cl)c(C(=O)NC(C)(C)C)c1` [Compound 7], the “kill in % (larvae killed)” value in data set [2] is 100%. Besides, the chromatographic logP in data set [4] was determined as 3. Moreover, the pest or weed control at 100 g/ha in data set [5] and in data set [6] was 100% each time.

As to `COC(=O)c1cc(C)c(NC(=O)c2cc(Cn3nnc(C(F)(F)F)n3)nn2-c2ncccc2Cl)c(C(=O)NC(C)C)c1` [Compound 3], the pest or weed control at 100 g/ha in data set [1] and in data set [6] was 100% throughout. The “kill in % (larvae killed)” value in data set [2] amounted to 100%. For the same compound, in data set [4], the chromatographic logP was found to be 3.21.

Regarding `COC(=O)c1cc(C)c(NC(=O)c2cc(Cn3nnc(C(F)(F)F)n3)nn2-c2ncccc2Cl)c(C(=O)NC(C)(C)C)c1` [Compound 4], the pest or weed control at 100 g/ha in data set [1] and in data set [6] was 100% throughout. For the same compound, the “kill in % (larvae killed)” value in data set [2] was determined as 100%. Moreover, the “kill in % (flies killed)” value in data set [3] came out at 100%. Besides, the chromatographic logP in data set [4] was found to be 3.52.

With `COC(=O)c1cc(C)c(NC(=O)c2cc(Cn3nnc(C(F)(F)F)n3)nn2-c2ncccc2Cl)c(C(N)=O)c1` [Compound 5], the pest or weed control at 100 g/ha in data set [1] was found to be 100%; in data set [5], 90%; in data set [6] it was 100%. In data set [2], the “kill in % (larvae killed)” value came to 100%. In addition, in data set [4], the chromatographic logP was 2.56.

As for `CNC(=O)c1cc(C(N)=S)cc(C)c1NC(=O)c1cc(Cn2nnc(C(F)(F)F)n2)nn1-c1ncccc1Cl` [Compound 23], the pest or weed control at 100 g/ha in data set [1], in data set [5] and in data set [6] was 100% throughout. The compound further showed a chromatographic logP in data set [4] of 2.26. In data set [7], this compound yielded a larval mortality at 20 g/ha of 100%.

As to `CNC(=O)c1cc(C)cc(C)c1NC(=O)c1cc(Cn2nnc(C(F)(F)F)n2)nn1-c1ncccc1Cl` [Comparative Example, reference compound], in data set [7], the larval mortality at 20 g/ha came to 0%.

As for `CNC(=O)c1cc(-n2cncn2)cc(C)c1NC(=O)c1cc(Cn2nnc(C(F)(F)F)n2)nn1-c1ncccc1Cl` [Compound 36], the pest or weed control at 100 g/ha in data set [1], in data set [5] and in data set [6] was 100% in each case. The compound further had a chromatographic logP in data set [4] of 2.25.
